Reference: US12139472B2, “Inhibitors of advanced glycation end products” (priority 2019, dated 2024)

Test: Pharmacokinetic study for PTG-630 (IV and PO): plasma, whole blood, tissues, urine
Type: in vivo, Sprague Dawley rats
Procedure: The samples were analyzed in two batches with standards and QCs prepared on rat plasma and rat urine. Analyst® 1.6 (SCIEX) software was used for statistical analysis of bioanalytical data. […] Dose samples collected at 0.083 h-6 h postdose were diluted 4 times with SD rat plasma prior to plating. Twenty-four (24) hours plasma samples were assayed without dilution. […] Two sciatic nerve samples were excluded from analysis, due to the insufficient sample size. […] The 12 non-cannulated animals were arbitrarily assigned to groups upon arrival and housed together throughout the experiment. The animals were acclimated to their designated housing for at least 24 hours before the first day of dosing. […] Blood samples were collected via cannula from IV dosed rats or by cardiac stick from PO dosed rats at the specified time points for sampling pharmacokinetics. Blood was collected into K2EDTA tubes. Tubes were mixed gently after blood collection, chilled and centrifuged at 3000 rpm, 4° C. within 30 minutes upon collection. The samples were centrifuged at 4° C. and the resultant plasma separated. […] Urine from Group 1 was collected via polycarbonate tubes from rats placed in drug metabolism cages. Urine was maintained and room temperature through the collection period.

[1] = PTG-4997 in kidneys after PTG-630 PO

Cc1ncc(CO)c(-c2ncc[nH]2)c1O [PTG-4997]
<BLQ: PTG-4997 (metabolite) concentration (Table 2, for PTG-4997 (metabolite) after PTG-630 IV 5 mg/kg, plasma, 0.083 h postdose, individual animals) | PTG-4997 (metabolite) concentration (Table 2, for PTG-4997 (metabolite) after PTG-630 IV 5 mg/kg, plasma, 0.5 h postdose, individual animals, 5 mg/kg) | PTG-4997 (metabolite) concentration (Table 2, for PTG-4997 (metabolite) after PTG-630 IV 5 mg/kg, plasma, 1 h postdose, individual animals) | PTG-4997 (metabolite) concentration (Table 2, for PTG-4997 (metabolite) after PTG-630 IV 5 mg/kg, plasma, 24 h postdose, individual animals) | PTG-4997 (metabolite) concentration (Table 2, for PTG-4997 (metabolite) after PTG-630 PO 100 mg/kg, brain, 0.5 h postdose, Mean) | PTG-4997 (metabolite) concentration (Table 2, for PTG-4997 (metabolite) after PTG-630 PO 100 mg/kg, brain, 0.5 h postdose, individual animals) | PTG-4997 (metabolite) concentration (Table 2, for PTG-4997 (metabolite) after PTG-630 PO 100 mg/kg, brain, 1 h postdose, Mean) | PTG-4997 (metabolite) concentration (Table 2, for PTG-4997 (metabolite) after PTG-630 PO 100 mg/kg, brain, 1 h postdose, individual animals) | PTG-4997 (metabolite) concentration (Table 2, for PTG-4997 (metabolite) after PTG-630 PO 100 mg/kg, brain, 2 h postdose, Mean) | PTG-4997 (metabolite) concentration (Table 2, for PTG-4997 (metabolite) after PTG-630 PO 100 mg/kg, brain, 2 h postdose, individual animals) | PTG-4997 (metabolite) concentration (Table 2, for PTG-4997 (metabolite) after PTG-630 PO 100 mg/kg, brain, 4 h postdose, Mean) | PTG-4997 (metabolite) concentration (Table 2, for PTG-4997 (metabolite) after PTG-630 PO 100 mg/kg, brain, 4 h postdose, individual animals) | PTG-4997 (metabolite) concentration (Table 2, for PTG-4997 (metabolite) after PTG-630 PO 100 mg/kg, brain, 6 h postdose, Mean) | PTG-4997 (metabolite) concentration (Table 2, for PTG-4997 (metabolite) after PTG-630 PO 100 mg/kg, brain, 6 h postdose, individual animals) | PTG-4997 (metabolite) concentration (Table 2, for PTG-4997 (metabolite) after PTG-630 PO 100 mg/kg, brain, 24 h postdose, Mean) | PTG-4997 (metabolite) concentration (Table 2, for PTG-4997 (metabolite) after PTG-630 PO 100 mg/kg, brain, 24 h postdose, individual animals) | PTG-4997 (metabolite) concentration (Table 2, for PTG-4997 (metabolite) after PTG-630 PO 100 mg/kg, liver, 0.5 h postdose, Mean) | PTG-4997 (metabolite) concentration (Table 2, for PTG-4997 (metabolite) after PTG-630 PO 100 mg/kg, liver, 0.5 h postdose, individual animals) | PTG-4997 (metabolite) concentration (Table 2, for PTG-4997 (metabolite) after PTG-630 PO 100 mg/kg, liver, 1 h postdose, Mean) | PTG-4997 (metabolite) concentration (Table 2, for PTG-4997 (metabolite) after PTG-630 PO 100 mg/kg, liver, 1 h postdose, individual animals) | PTG-4997 (metabolite) concentration (Table 2, for PTG-4997 (metabolite) after PTG-630 PO 100 mg/kg, liver, 2 h postdose, Mean) | PTG-4997 (metabolite) concentration (Table 2, for PTG-4997 (metabolite) after PTG-630 PO 100 mg/kg, liver, 2 h postdose, individual animals) | PTG-4997 (metabolite) concentration (Table 2, for PTG-4997 (metabolite) after PTG-630 PO 100 mg/kg, liver, 4 h postdose, Mean) | PTG-4997 (metabolite) concentration (Table 2, for PTG-4997 (metabolite) after PTG-630 PO 100 mg/kg, liver, 4 h postdose, individual animals) | PTG-4997 (metabolite) concentration (Table 2, for PTG-4997 (metabolite) after PTG-630 PO 100 mg/kg, liver, 6 h postdose, Mean) | PTG-4997 (metabolite) concentration (Table 2, for PTG-4997 (metabolite) after PTG-630 PO 100 mg/kg, liver, 6 h postdose, individual animals) | PTG-4997 (metabolite) concentration (Table 2, for PTG-4997 (metabolite) after PTG-630 PO 100 mg/kg, liver, 24 h postdose, Mean) | PTG-4997 (metabolite) concentration (Table 2, for PTG-4997 (metabolite) after PTG-630 PO 100 mg/kg, liver, 24 h postdose, individual animals) | PTG-4997 (metabolite) concentration (Table 2, for PTG-4997 (metabolite) after PTG-630 PO 100 mg/kg, muscle, 0.5 h postdose, Mean) | PTG-4997 (metabolite) concentration (Table 2, for PTG-4997 (metabolite) after PTG-630 PO 100 mg/kg, muscle, 0.5 h postdose, individual animals) | PTG-4997 (metabolite) concentration (Table 2, for PTG-4997 (metabolite) after PTG-630 PO 100 mg/kg, muscle, 1 h postdose, Mean) | PTG-4997 (metabolite) concentration (Table 2, for PTG-4997 (metabolite) after PTG-630 PO 100 mg/kg, muscle, 1 h postdose, individual animals)
11.6 h: MRT [1]
106 ng/mL: PTG-4997 (metabolite) concentration (Table 2, for PTG-4997 (metabolite) after PTG-630 PO 100 mg/kg, kidney, 24 h postdose, Mean)
2.36 h: half-life [1]
86.5 ng/mL: PTG-4997 (metabolite) concentration (Table 2, for PTG-4997 (metabolite) after PTG-630 PO 100 mg/kg, kidney, 0.5 h postdose, Mean)
182.5 ng/mL: PTG-4997 (metabolite) concentration (Table 2, for PTG-4997 (metabolite) after PTG-630 PO 100 mg/kg, kidney, 6 h postdose, Mean)
128 ng/mL: PTG-4997 (metabolite) concentration (Table 2, for PTG-4997 (metabolite) after PTG-630 PO 100 mg/kg, kidney, 4 h postdose, Mean)
6 h: Tmax [1]
81 ng/mL: PTG-4997 (metabolite) concentration (Table 2, for PTG-4997 (metabolite) after PTG-630 PO 100 mg/kg, kidney, 2 h postdose, Mean)
0 ng/mL: PTG-4997 (metabolite) concentration (Table 2, for PTG-4997 (metabolite) after PTG-630 PO 100 mg/kg, kidney, 1 h postdose, Mean)
